# US5229381A, “Substituted azetidinones as anti-inflammatory and antidegenerative agents” (Merck & Co., Inc., priority 1991, dated 1993)
# Molecular target: T1, human polymorphonuclear leukocyte elastase (Homo sapiens, UniProt P08246)
# T1 construct: Crude extract of human polymorphonuclear leukocytes (PMN) containing elastase activity; endogenous in cells; host or cells: human polymorphonuclear leukocytes (crude extract)
# T1 sequence (P08246 30-247 limits assumed): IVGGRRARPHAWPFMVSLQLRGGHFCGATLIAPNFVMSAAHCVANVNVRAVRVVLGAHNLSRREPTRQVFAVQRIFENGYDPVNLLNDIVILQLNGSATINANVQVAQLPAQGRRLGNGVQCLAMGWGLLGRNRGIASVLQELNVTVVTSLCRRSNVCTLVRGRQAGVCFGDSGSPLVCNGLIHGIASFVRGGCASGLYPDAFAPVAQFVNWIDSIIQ
# Experiment: Inhibition of human polymorphonuclear leukocyte (granulocyte) elastase via hydrolysis of Boc-AAPAN or Boc-AAPVN
# Assay type: biochemical
# Conditions: Table I; 2 min after time zero; crude PMN extract, pH 7.5
# Procedure: Enzyme Assays for the Inhibition of Human Polymorphonuclear Leukocyte Elastase Via Hydrolysis of N-t-Boc-alanyl-alanyl-prolylalanine-p-nitroanilide (Boc-AAPAN) or N-t-Boc-alanyl-prolylvaline-p-nitroanilide (Boc-AAPVN) Reagent:
# 0.05M TES (N-tris[hydroxymethyl]methyl-2-amino-ethanesulfonic acid) Buffer, pH 7.5.
# 0.2 mM Boc-AAPAN or Boc-AAPVN.
# To prepare substrate, the solid was first dissolved in 10.0 ml DMSO. Buffer at pH 7.5 was then added to a final volume of 100 ml.
# Crude extract of human polymorphonuclear leukocytes (PMN) containing elastase activity.
# Inhibitors (azetidinones) to be tested dissolved in DMSO just before use.
# To 1.0 ml of 0.2 mM Boc-AAPAN in a cuvette, 0.01-0.1 ml of DMSO with or without inhibitor was added. After mixing, a measurement was taken at 410 mμ to detect any spontaneous hydrolysis due to presence of test compound. 0.05 Milliliters of PMN extract was then added and the ΔOD/min at 410 mμ was measured and recorded. Beckman model 35 spectrophotometer was used.
# Results were also expressed as Ki, the micromolar concentration of the inhibitor (μM) giving 50% of the control enzyme activity; or as ^k obs/I which is the second order rate constant in per mole per second for inactivation of the enzyme.
# The elastase activity in the crude PMN extract may vary from one preparation to another. A control of each new batch is run, and the volume added in the assay procedure is adjusted according to activity.
row,Compound,"ID50, effective dosage for 50% inhibition of the enzyme activity two minutes after time zero [µg/mL]"
1,CCC1C(=O)N(C(C)=O)C1OC(C)=O (stereo not drawn) [Table I: H; C2 H5; OCOCH3; COCH3],100

# Same assay, conditions: Table I; read-out: Ki, concentration of the inhibitor giving 50% of the control enzyme activity
row,Compound,Ki [nM]
1,CCC1C(=O)N(C(C)=O)C1OC(C)=O (stereo not drawn) [Table I: H; C2 H5; OCOCH3; COCH3],360
2,CCO[C@@H]1[C@@H](CC)C(=O)N1C(C)=O (relative stereo) [Table I: H; C2 H5 (trans); OC2 H5; COCH3],11900
3,CCC1C(=O)N(C(C)=O)C1OC(=O)CCC(=O)O (stereo not drawn),2000

# Same assay, conditions: pH 7.5, Table I; read-out: kobs/I, second order rate constant of inactivation of the enzyme
row,Compound,kinact/KI [M⁻¹ s⁻¹]
1,CCC[C@H]1C(=O)N(C(=O)OCC)[C@@H]1OCC(=O)O (relative stereo),1500
2,CCOC(=O)N1C(=O)[C@H](CC)[C@H]1OC(C)C(=O)O (relative stereo),346

# Same assay, conditions: pH 7.5, Table II, (per mole per second); read-out: kobs/I, second order rate constant of inactivation of the enzyme
row,Compound,kinact/KI [M⁻¹ s⁻¹]
1,CCC1(C)C(=O)N(C(=O)NCc2ccccc2)C1Oc1ccc(C(N)=O)cc1 (stereo not drawn),12500
2,CCC1(CC)C(=O)N(C(=O)NCc2ccccc2)C1Oc1ccccc1CO (stereo not drawn),2960
3,CCC(NC(=O)N1C(=O)C(C)(CC)C1Oc1ccc(C(=O)O)cc1)c1ccsc1 (stereo not drawn),78800
4,CCC1(CC)C(=O)N(C(=O)NCc2ccc(C(=O)O)cc2)C1Oc1ccc(C(C)=O)cc1 (stereo not drawn),2810
5,CCC1(CC)C(=O)N(C(=O)NCc2ccc(N(C)C)cc2)C1Oc1ccc(C(=O)O)cc1 (stereo not drawn),9980
6,CCCC1C(=O)N(C(=O)NCc2ccccc2)C1Oc1ccc(C(=O)O)cc1 (stereo not drawn) [Table II: C3 H7; H; O-(4-COOHPh); CH2 Ph],5000
7,CCC1(CC)C(=O)N(C(=O)NCc2ccc(Oc3ccccc3)cc2)C1Oc1ccc(C(=O)O)cc1 (stereo not drawn),12000
8,CCC1(CC)C(=O)N(C(=O)NCc2ccccc2)C1Oc1ccc(NC(C)=O)cc1 (stereo not drawn),3500
9,CCC1(CC)C(=O)N(C(=O)NCCCCC(O)c2ccccc2)C1Oc1ccc(C(=O)O)cc1 (stereo not drawn),4200
10,CCC1(CC)C(=O)N(C(=O)NCc2ccc(Cl)cc2)C1Oc1ccc(C(=O)O)cc1 (stereo not drawn),3420
11,CCCC1(CC)C(=O)N(C(=O)NCc2ccc3ccccc3c2)C1Oc1ccc(C(=O)O)cc1 (stereo not drawn),51000
12,CCC1(CC)C(=O)N(C(=O)NCc2ccc(F)cc2)C1Oc1ccc(C(=O)O)cc1 (stereo not drawn),2340
13,CCC1(CC)C(=O)N(C(=O)NCc2ccccc2)C1Oc1ccc(C(=O)NS(=O)(=O)c2ccc(Cl)cc2)cc1 (stereo not drawn) [Table II: C2 H5; C2 H5; drawing 38; CH2 Ph],6300
14,CCC1(CC)C(=O)N(C(=O)NCc2ccc3cc4ccccc4cc3c2)C1Oc1ccc(C(=O)O)cc1 (stereo not drawn),36200
15,CCC1(C)C(=O)N(C(=O)NCc2cc(C)c(C(=O)O)c(C)c2)C1Oc1ccc(C(=O)O)cc1 (stereo not drawn),5600
16,CCC1(CC)C(=O)N(C(=O)NCc2cc3ccccc3o2)C1Oc1ccc(C(=O)O)cc1 (stereo not drawn),13200
17,CCC1(CC)C(=O)N(C(=O)NCc2ccccc2)C1Oc1ccc(C(=O)N2CCC[C@H]2C(=O)O)cc1 (stereo partly drawn) [Table II: C2 H5; C2 H5; drawing 37; CH2 Ph],2000
18,CCC1(COC)C(=O)N(C(=O)NCc2ccc3c(c2)OCO3)C1Oc1ccc(C(=O)O)cc1 (stereo not drawn),17000
19,CCC1(CC)C(=O)N(C(=O)NCc2ccc(-c3ccccc3)cc2)C1Oc1ccc(C(=O)CCC(=O)O)cc1 (stereo not drawn),107000
20,C=CCC1C(=O)N(C(=O)NCc2ccccc2)C1Oc1ccc(C(=O)O)cc1 (stereo not drawn),5400

# Same assay, conditions: pH 7.5, Table III, (per mole per second); read-out: kobs/I, second order rate constant of inactivation of the enzyme
row,Compound,kinact/KI [M⁻¹ s⁻¹]
1,CCC1(CC)C(=O)N(C(=O)NCc2ccc(-c3ccccc3)cc2)C1n1ccnc1 (stereo not drawn) [Table III: 1-imidazole; CH2 Ph-4-Ph],461
2,CCC1(CC)C(=O)N(C(=O)NCc2ccccc2)C1NC(=O)OC (stereo not drawn) [Table III: NHCOOMe; CH2 Ph],496
3,CCC1(CC)C(=O)N(C(=O)NCc2ccccc2)C1Oc1ccc(C(NC(C)=O)C(=O)O)cc1 (stereo not drawn) [Table III: O-(4-CH(COOH)NHAcPh); CH2 Ph],1680
4,CCC1(CC)C(=O)N(C(=O)NCc2ccccc2)C1n1cnnn1 (stereo not drawn) [Table III: 1-tetrazolyl; CH2 Ph],948
5,CCC1(CC)C(=O)N(C(=O)NCc2ccccc2)C1n1ccccc1=O (stereo not drawn) [Table III: [2H-1-pyridonyl]; CH2 Ph],357
6,CCC1(CC)C(=O)N(C(=O)NCc2ccccc2)C1OCC(O)CO (stereo not drawn) [Table III: O-glyceryl; CH2 Ph],818
7,C=CCOC1N(C(=O)NCc2ccc(-c3ccccc3)cc2)C(=O)C1(CC)CC (stereo not drawn) [Table III: O-(allyl); CH2 Ph-4-Ph],12500

# Same assay, conditions: pH 7.5, Table IV, (per mole per second); read-out: kobs/I, second order rate constant of inactivation of the enzyme
row,Compound,kinact/KI [M⁻¹ s⁻¹]
1,CCOC(=O)c1ccc(COC(=O)N2C(=O)C(CC)C2Oc2ccc(C(=O)O)cc2)cc1 (stereo not drawn),227000
2,CCC1C(=O)N(C(=O)N2CCc3ccccc3C2)C1Oc1ccc(C(=O)O)cc1 (stereo not drawn) [Table IV: C2 H5; H; O-(4-COOHPh); drawing 46],10100
3,CCC1C(=O)N(C(=O)N(Cc2ccccc2)Cc2ccccc2)C1Oc1ccc(C(=O)O)cc1 (stereo not drawn),5980
4,CCC1(C)C(=O)N(C(=O)N2CCc3ccccc3C2)C1Oc1ccc(C(=O)O)cc1 (stereo not drawn),4380
5,CCC[C@@H](NC(=O)N1C(=O)C(CC)(CC)C1Oc1ccc(CC(=O)O)cc1)c1ccc2occc2c1 (stereo partly drawn),847000

# Same assay, conditions: pH 7.5, Table V, (per mole per second); read-out: kobs/I, second order rate constant of inactivation of the enzyme
row,Compound,kinact/KI [M⁻¹ s⁻¹]
1,CCC1(CC)C(=O)N(C(=O)N[C@H](C)c2ccc(C)cc2)[C@H]1Oc1ccc(C(=O)O)cc1 [Table V: 4-COOH; Me; 4-Me],47000
2,CCC1(CC)C(=O)N(C(=O)N[C@H](COC)c2ccccc2)[C@H]1Oc1ccc(C(=O)O)cc1 [Table V: 4-COOH; CH2 OMe; H],6090
3,CCC[C@@H](NC(=O)N1C(=O)C(CC)(CC)[C@@H]1Oc1ccc(C(=O)O)cc1)c1ccccc1 [Table V: 4-COOH; nPr; H],120000
4,CC[C@@H](NC(=O)N1C(=O)C(CC)(CC)[C@@H]1Oc1ccc(CC(=O)O)cc1)c1ccccc1 [Table V: 4-CH2 COOH; Et; H],140000

# Same assay, conditions: pH 7.5, Table VI, (per mole per second); read-out: kobs/I, second order rate constant of inactivation of the enzyme
row,Compound,kinact/KI [M⁻¹ s⁻¹]
1,CCC1(CC)C(=O)N(C(=O)N[C@@H](c2ccccc2)C(C)C)[C@H]1Oc1ccc(C(=O)O)cc1 [Table VI: 4-COOH; iPr; H],177000
2,"CCC[C@@H](NC(=O)N1C(=O)C(CC)(CC)[C@@H]1Oc1ccc(CC(=O)O)c(Cl)c1)c1ccc(C)cc1 [Table VI: 3-Cl,4-CH2 COOH; nPr; 4-Me, (4S)-3,3-Diethyl-1-[(R)-α-n-propyl-(4-methyl)benzylaminocarbonyl]-4-[(4-carboxymethyl-3-chloro)phenoxy]azetidin-2-one]",589000
3,CC[C@@H](NC(=O)N1C(=O)C(CC)(CC)[C@@H]1Oc1ccc(C(=O)O)cc1)c1ccc(-c2ccccc2)cc1 [Table VI: 4-COOH; Et; 4-Ph],26400
4,"C=CC[C@@H](NC(=O)N1C(=O)C(CC)(CC)[C@@H]1Oc1ccc(CC(=O)O)cc1)c1ccc(C)cc1 [Table VI: 4-CH2 COOH; allyl; 4-Me, (4S)-3,3-diethyl-1-[(R)-α-allyl-(4-methyl)benzyl-aminocarbonyl]-4-[(4-carboxymethyl)phenoxy]azetidin-2-one]",664000
5,CCC1(CC)C(=O)N(C(=O)N[C@H](C)c2ccccc2)[C@H]1Oc1ccc(C=CC(=O)O)cc1 [Table VI: 4-CHCHCOOH; Me; H],9100
6,CCC1(CC)C(=O)N(C(=O)N[C@H](c2ccccc2)C(C)C)[C@H]1Oc1ccc(C(=O)O)cc1 [Table VI: 4-COOH; iPr(S); H],4740
7,CCC1(CC)C(=O)N(C(=O)N[C@H](C)c2ccccc2)[C@H]1Oc1ccc(C(=O)O)cc1 [Table VI: 4-COOH; Me; H],4020
8,"CCC[C@@H](NC(=O)N1C(=O)C(CC)(CC)[C@@H]1Oc1ccc(CC(=O)O)cc1)c1ccc2occc2c1 [Table VI: 4-Ch2(OOH); nPr; 3,4(-CHCHO), (4S)-3,3-Diethyl-1-[[(R)-1-(benzofuran-5-yl)butylamino]carbonyl]-4-[4-(carboxymethyl)phenoxy]azetidin-2-one]",848000
9,"CCC[C@@H](NC(=O)N1C(=O)C(CC)(CC)[C@@H]1Oc1ccc(C(=O)O)c(F)c1)c1ccc(C)cc1 [Table VI: 3-F,4-COOH; nPr; 4-Me, (4S)-3,3-Diethyl-1-[(R)-α-n-propyl-(4-methyl)benzylaminocarbonyl]-4-[(4-carboxy-3-fluoro)phenoxy]-azetidin-2-one]",464000
10,"CCC[C@@H](NC(=O)N1C(=O)C(CC)(CC)[C@@H]1Oc1ccc(CC(=O)O)c(F)c1)c1ccc(C)cc1 [Table VI: 3-F,4-CH2 COOH; nPr; 4-Me, (4S)-3,3-Diethyl-1-[(R)-α-n-propyl-(4-methyl)benzylaminocarbonyl]-4-[(4-carboxymethyl-3-fluoro)phenoxy]azetidin-2-one]",637000
11,"CCC[C@@H](NC(=O)N1C(=O)C(CC)(CC)[C@@H]1Oc1ccc(CC(=O)O)c(C)c1)c1ccc(C)cc1 [Table VI: 3-Me,4-CH2 COOH; nPr; 4-Me]",998000
12,"CCC[C@@H](NC(=O)N1C(=O)C(CC)(CC)[C@@H]1Oc1ccc(C(=O)O)cc1)c1ccc(C)cc1 [Table VI: 4-COOH; nPr; 4-Me, (4S)-3,3-diethyl-1-[(R)-α-n-propyl-(4-methyl)-benzylaminocarbonyl]-4-[(4-carboxy)phenoxy]azetidin-2-one]",389000
13,CCC1(CC)C(=O)N(C(=O)N[C@H](C)c2ccccc2)[C@H]1Oc1ccc(CC(=O)O)cc1 [Table VI: 4-CH2 COOH; Me; H],8370
14,CCC1(CC)C(=O)N(C(=O)N[C@H](C)c2ccc(-c3ccccc3)cc2)[C@H]1Oc1ccc(C(=O)O)cc1 [Table VI: 4-COOH; Me; 4-Ph],74000
15,CCC1(CC)C(=O)N(C(=O)N[C@@H](COC)c2ccccc2)[C@H]1Oc1ccc(C(=O)O)cc1 [Table VI: 4-COOH; CH2 OMe(R); H],6980

# Same assay, conditions: pH 7.5, read-out: kobs/I, second order rate constant of inactivation of the enzyme
row,Compound,kinact/KI [M⁻¹ s⁻¹]
1,CCC1C(=O)N(C(C)=O)C1OC(C)=O (stereo not drawn) [Table I: H; C2 H5; OCOCH3; COCH3],15100
2,CCO[C@@H]1[C@@H](CC)C(=O)N1C(C)=O (relative stereo) [Table I: H; C2 H5 (trans); OC2 H5; COCH3],1670
3,CCC1C(=O)N(C(C)=O)C1OC(=O)CCC(=O)O (stereo not drawn),4510
